From patent publication US8148097B2, “Screening method for identification of compounds with calcium-independent phospholipase A2β (iPLA2β) modulating activity” (Washington University, priority 2005, dated 2012)
One block for each compound: values may come before it.

Assays:
[1] = target: T1, iPLA2γ (Homo sapiens, UniProt Q9NP80); assay: Cardiolipin and phospholipid hydrolysis catalyzed by iPLA2γ and inhibition by BEL; assay type: biochemical; conditions: iPLA2g + BEL 10 μM, 20 min 37° C.
T1 sequence (Q9NP80 1-782): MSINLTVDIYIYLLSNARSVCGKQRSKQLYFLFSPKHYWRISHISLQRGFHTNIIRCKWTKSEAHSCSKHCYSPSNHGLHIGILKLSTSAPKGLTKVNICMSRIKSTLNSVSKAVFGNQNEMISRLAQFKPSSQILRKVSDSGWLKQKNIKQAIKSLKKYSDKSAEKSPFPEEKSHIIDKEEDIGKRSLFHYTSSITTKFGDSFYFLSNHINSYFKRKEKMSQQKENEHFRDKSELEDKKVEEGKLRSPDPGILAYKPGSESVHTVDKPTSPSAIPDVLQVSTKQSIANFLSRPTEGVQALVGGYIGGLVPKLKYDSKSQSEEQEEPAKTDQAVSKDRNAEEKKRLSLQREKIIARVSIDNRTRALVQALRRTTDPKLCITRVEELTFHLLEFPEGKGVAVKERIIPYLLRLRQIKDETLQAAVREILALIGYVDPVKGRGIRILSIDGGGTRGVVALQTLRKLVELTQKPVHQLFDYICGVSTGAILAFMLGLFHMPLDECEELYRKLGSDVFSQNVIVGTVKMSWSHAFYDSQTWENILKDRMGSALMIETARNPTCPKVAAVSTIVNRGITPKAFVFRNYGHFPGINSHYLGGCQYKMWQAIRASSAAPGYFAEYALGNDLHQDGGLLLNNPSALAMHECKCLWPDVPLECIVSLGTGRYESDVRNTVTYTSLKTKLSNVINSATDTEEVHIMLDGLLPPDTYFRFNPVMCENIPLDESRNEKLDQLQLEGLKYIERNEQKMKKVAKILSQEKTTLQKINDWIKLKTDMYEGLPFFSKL
Procedure: (§1) Purified calcium-independent phospholipase A2 (iPLA2β) and calcium-independent phospholipase A2γ were incubated with vesicles containing 10% cardiolipin (tetra 18:1) for 20 min at 37° C.

[2] = target: T2, iPLA2β (Cricetulus griseus, UniProt A0A3L7I2I8); assay: Covalent acylation (autoacylation) of iPLA2β with [14C]-long chain acyl-CoAs; assay type: biochemical; conditions: for effect of pretreatment on radiolabeling of iPLA2β with [1-14C]-oleoyl-CoA: 5 mM, 5 min at 30° C. pretreatment, FIG. 7
T2 construct: (His)6; made in house; host or cells: Sf9 insect cells (baculovirus)
T2 sequence (A0A3L7I2I8 1-752 isoform A0A3L7I2I8-2): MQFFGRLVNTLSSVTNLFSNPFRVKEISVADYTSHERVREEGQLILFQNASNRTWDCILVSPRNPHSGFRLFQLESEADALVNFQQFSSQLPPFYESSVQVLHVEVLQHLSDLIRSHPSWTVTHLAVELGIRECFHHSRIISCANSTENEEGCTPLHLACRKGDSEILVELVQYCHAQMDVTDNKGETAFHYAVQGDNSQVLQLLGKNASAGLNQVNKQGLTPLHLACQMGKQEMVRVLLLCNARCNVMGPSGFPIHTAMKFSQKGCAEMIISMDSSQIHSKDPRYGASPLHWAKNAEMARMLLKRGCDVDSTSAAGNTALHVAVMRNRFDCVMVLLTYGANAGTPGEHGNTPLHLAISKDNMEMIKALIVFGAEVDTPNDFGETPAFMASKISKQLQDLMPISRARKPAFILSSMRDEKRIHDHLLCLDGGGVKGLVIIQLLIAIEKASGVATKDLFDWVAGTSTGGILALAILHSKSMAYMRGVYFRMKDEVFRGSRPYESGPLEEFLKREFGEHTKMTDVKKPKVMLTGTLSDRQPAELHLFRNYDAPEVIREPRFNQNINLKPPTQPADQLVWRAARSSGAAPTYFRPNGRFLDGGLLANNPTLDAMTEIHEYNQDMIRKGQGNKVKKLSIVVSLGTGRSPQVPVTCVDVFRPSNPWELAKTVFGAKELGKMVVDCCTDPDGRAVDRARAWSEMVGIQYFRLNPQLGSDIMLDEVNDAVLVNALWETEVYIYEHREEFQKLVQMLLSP
Procedure: FIG. 5—Equivalent amounts of the indicated [1-^14C]-acyl-CoA guests (5 mol %) were incorporated into host POPC (100 μM) vesicles and incubated for 1 hr at 37° C. with equal amounts of either wild-type (WT) iPLA2β(His)6 (peptide disclosed as SEQ ID NO: 4), S465A iPLA2β(His)6 (peptide disclosed as SEQ ID NO: 4), or BEL-pretreated WT iPLA2β(His)6 (peptide disclosed as SEQ ID NO: 4) enzyme as described in Experimental Procedures. Samples were resolved by SDS-PAGE (10% gel), fixed, and dried before visualization by autoradiography.
FIG. 6—Purified iPLA2β(His)6 (peptide disclosed as SEQ ID NO: 4) (2 μM) was incubated with the indicated concentrations of [1-^14C]-oleoyl-CoA present as guest in host POPC (100 μM) vesicles for 1 hr at 37° C. Samples were electrophoresed in parallel with standard amounts (0.5-10 nCi) of [^14C]-BSA of known activity (not shown). The fixed and dried gel was exposed to film and the resultant signals from the [^14C]-BSA were utilized to generate a standard curve utilizing ID software from a Kodak Imagestation to determine the incorporation of [1-^14C]-oleate into iPLA2β.
FIG. 7—Purified iPLA2β(His)6 (peptide disclosed as SEQ ID NO: 4) was incubated with [1-^14C]-oleoyl CoA (10 mol %) incorporated as guest in host POPC vesicles. N-ethylmaleimide and iodoacetamide samples were pretreated with 5 mM of either reagent for 5 min at 30° C. before addition of [1-^14C]-oleoyl-CoA. Samples were incubated with 1 N HCl, 1 N NaOH, or 2 N neutral hydroxylamine for 1 hr at 30° C. as indicated. All samples, except lane 1, were precipitated with CHCl3/MeOH and washed with 70% acetone before SDS-PAGE and autoradiography as described in Experimental Procedures.
FIG. 10—Purified iPLA2β(His)6 (peptide disclosed as SEQ ID NO: 4) was incubated with [1-^14C]-oleoyl CoA (10 mol %) incorporated as guest in host POPC vesicles in the presence of EGTA (5 mM), Ca^2+ (1 mM), CaM (3 μg), or Ca^2+-CaM for 1 h at 37° C. Samples were resolved by SDS-PAGE and the gel was soaked in Amplify fluorographic reagent, dried, and exposed to film as described in Experimental Procedures.
Covalent Modification of […] with [^14C]-long chain Acyl CoAs—Purified recombinant iPLA2β(His)6 (peptide disclosed as SEQ ID NO: 4) was incubated with POPC vesicles containing 10 mol % [1-^14C]-acyl-CoA for 1 h at 37° C. […] Chloroform/methanol precipitation of some samples was performed as described (66) utilizing 15 μg of bovine serum albumin as carrier. In tests to examine the nature of the covalent linkage between oleic acid and iPLA2β, acid (HCl), base (NaOH), and hydroxylamine were added to the indicated concentrations and the samples were incubated at 30° C. for 1 h. Bovine serum albumin (15 μg) and SDS-PAGE loading buffer were then added to each sample prior to dialysis against 50 mM Tris-HCl, pH 6.8 containing 10% glycerol and 1% SDS for 4 h. Samples were electrophoresed by SDS-PAGE, fixed (40% methanol containing 10% acetic acid), stained with Coomassie Blue R-250, incubated in Amplify fluorographic reagent, dried, and exposed to Kodak Biomax MR film for 2-5 days at −80° C.

[3] = target: T2, iPLA2β; assay: Cardiolipin and phospholipid hydrolysis catalyzed by iPLA2β and inhibition by BEL; assay type: biochemical; conditions: iPLA2b + BEL 10 μM, 20 min 37° C.
Procedure: as §1

[4] = target: T1, iPLA2γ; conditions: racemic BEL, previous work; read-out: IC50, iPLA2γ phospholipase A2 activity; cited from earlier work
[5] = target: T2, iPLA2β; assay: iPLA2β palmitoyl-CoA thioesterase (hydrolase) activity, palmitoyl-CoA guest in host vesicles; assay type: biochemical; conditions: pre-incubated with purified iPLA2β(His)6; palmitoyl-CoA guest in POPC/DOPS host bilayers; read-out: IC50, iPLA2β palm-CoA hydrolase activity
Procedure: The enzyme was then added to 100 mM Tris-HCl, pH 7.2 containing 1 mM EGTA and [1-^14C]-palmitoyl-CoA guest (5 mol %) in POPC (100 μM) host vesicles for 2 min at 37° C. Following extraction into butanol, liberated [1-^14C]-palmitic acid was separated from [1-^14C]-palmitoyl-CoA by TLC and quantified by liquid scintillation spectrometry as described in Experimental Procedures.
FIG. 9—Calcium-independent iPLA2β was pre-incubated in the presence of Ca^2+ (1 mM) or Ca^2+-CaM (3 μg) on ice before addition to 95 μM POPC containing either 5 mol % [1-^14C]-POPC or [1-^14C]-palmitoyl-CoA in 100 mM Tris-HCl, pH 7.2. After incubation at 37° C. for 3 min, reactions were terminated by vortexing in the presence of butanol and released radiolabeled fatty acids were resolved by TLC and quantitated by liquid scintillation spectrometry as described in Experimental Procedures.
Phospholipase A2 and Acyl-CoA Hydrolase Enzymatic Assays—Purified recombinant iPLA2β(His)6 (peptide disclosed as SEQ ID NO: 4) (0.1-1 μg) was incubated with radiolabeled phospholipid or acyl-CoA in 25 mM Tris-HCl, pH 7.2 containing 1 mM EGTA (200 μl final volume) for 1-2 mm at 37° C. […] Incorporation of acyl-CoA into the POPC/DOPS vesicles employed was determined as described previously (64). […]

[6] = target: T2, iPLA2β; assay: iPLA2β-catalyzed acyl-CoA hydrolysis (substrate rate and selectivity); assay type: biochemical
Procedure: Reactions were terminated by vortexing with butanol and [1-^14C]-palmitic acid extracted into the butanol layer was resolved by TLC and quantified by liquid scintillation spectrometry as described in Experimental Procedures. B, iPLA2β catalyzed hydrolysis of palmitoyl-CoA guest in host POPC/DOPS vesicles. The indicated mol % of [^14C]-palmitoyl-CoA were incorporated into POPC/DOPS (90:10) vesicles (100 μM final vesicle lipid concentration). Each data point represents the average±S.E. for at least 4 separate determinations.
Released [1-^14C]-fatty acid was extracted into butanol by vortexing, resolved by TLC, and quantified by liquid scintillation spectrometry as described in Experimental Procedures. Each data point represents the average ±SE. from 8 separate determinations.
In tests using acyl-CoAs as guests in host phospholipid bilayers, radiolabeled acyl-CoAs were incorporated into POPC/DOPS (90:10 mol %) vesicles before addition to the reaction mix. […] Incorporation of acyl-CoA into the POPC/DOPS vesicles employed was determined as described previously (64). Reactions were terminated by extraction of the released radiolabeled fatty acids into 100 μl butanol, separation of fatty acids from unreacted substrate by thin layer chromatography, and quantitation by scintillation spectroscopy as previous described (65). […]

[7] = PAPC vesicles with 10 mol % tetra-18:1 CL

16:0 FA [1]: 3.07 nmol/reaction | 18:1 FA [1]: 0.54 nmol/reaction | 20:4 FA [1]: 0.54 nmol/reaction | Di-18:1 LysoCL [1]: 0.12 nmol/reaction | Tri-18:1 LysoCL [1]: 0.14 nmol/reaction | Tetra-18:1 CL [1, 7]: 2.18 nmol/reaction | effect of BEL pretreatment on iPLA2β acylation with palmitoyl-CoA and stearoyl-CoA ([2]; BEL-pretreated iPLA2β, FIG. 5): marked increases in acylation | 16:0 FA [3]: 0.96 nmol/reaction | 18:1 FA [3]: 0.61 nmol/reaction | 20:4 FA [3]: 0.50 nmol/reaction | Di-18:1 LysoCL [3]: 0.15 nmol/reaction | Tri-18:1 LysoCL [3]: 0.10 nmol/reaction | Tetra-18:1 CL [3, 7]: 1.95 nmol/reaction
Structure (SMILES): O=C1O/C(=C/Br)CCC1c1cccc2ccccc12 (racemic) [BEL, (E)-6-(bromomethylene)-3-(1-naphthalenyl)-2H-tetrahydropyran-2-one]
IC50 [4]: ~3000 nM

IC50 [5]: 800 nM
Structure (SMILES): O=C1O/C(=C/Br)CC[C@@H]1c1cccc2ccccc12 [(R)-BEL]

IC50 [5]: ~100 nM
Structure (SMILES): O=C1O/C(=C/Br)CC[C@H]1c1cccc2ccccc12 [(S)-BEL]

inhibition of iPLA2β by high concentrations of CoASH [6]: not inhibited
Structure (SMILES): CC(C)(COP(=O)(O)OP(=O)(O)OC[C@H]1O[C@@H](n2cnc3c(N)ncnc32)[C@H](O)[C@@H]1OP(=O)(O)O)[C@@H](O)C(=O)NCCC(=O)NCCS [CoASH]

More lines, now with the values behind:

Structure (SMILES): CCN1C(=O)C=CC1=O [N-ethylmaleimide]
effect of pretreatment on radiolabeling of iPLA2β with [1-14C]-oleoyl-CoA [2]: decreased radiolabeling

Structure (SMILES): CCCCC/C=C\C/C=C\C/C=C\C/C=C\CCC[14C](=O)SCCNC(=O)CCNC(=O)[C@H](O)C(C)(C)COP(=O)(O)OP(=O)(O)OC[C@H]1O[C@@H](n2cnc3c(N)ncnc32)[C@H](O)[C@@H]1OP(=O)(O)O [[1-^14C]-arachidonoyl-CoA]
signal intensity of iPLA2β acylation, fold less than with [1-14C]-oleoyl-CoA ([2]; wild-type iPLA2β, FIG. 5): ≈ 25 fold

Structure (SMILES): NC(=O)CI [iodoacetamide]
effect of pretreatment on radiolabeling of iPLA2β with [1-14C]-oleoyl-CoA [2]: decreased radiolabeling

Structure (SMILES): CCCCCCCCCCCCCCCC(=O)SCCNC(=O)CCNC(=O)[C@H](O)C(C)(C)COP(=O)(O)OP(=O)(O)OC[C@H]1O[C@@H](n2cnc3c(N)ncnc32)[C@H](O)[C@@H]1OP(=O)(O)O [palmitoyl-CoA]
maximal rate of palmitoyl-CoA thioesterase activity catalyzed by iPLA2β ([6]; at 2.5 μM palmitoyl-CoA, FIG. 1A): ≈ 250 nmol palmitic acid×min^−1×mg^−1 protein
